# Target: T1, hT1R2/hT1R3 sweet receptor expressed in HEK293 cell line (Homo sapiens, UniProt Q7RTX0+Q8TE23)
# T1 construct: expressed in transfected cells; host or cells: HEK293 derivative stably expressing Gα15 and hT1R2/hT1R3, clone S-9
# T1 sequence (Q8TE23 20-839): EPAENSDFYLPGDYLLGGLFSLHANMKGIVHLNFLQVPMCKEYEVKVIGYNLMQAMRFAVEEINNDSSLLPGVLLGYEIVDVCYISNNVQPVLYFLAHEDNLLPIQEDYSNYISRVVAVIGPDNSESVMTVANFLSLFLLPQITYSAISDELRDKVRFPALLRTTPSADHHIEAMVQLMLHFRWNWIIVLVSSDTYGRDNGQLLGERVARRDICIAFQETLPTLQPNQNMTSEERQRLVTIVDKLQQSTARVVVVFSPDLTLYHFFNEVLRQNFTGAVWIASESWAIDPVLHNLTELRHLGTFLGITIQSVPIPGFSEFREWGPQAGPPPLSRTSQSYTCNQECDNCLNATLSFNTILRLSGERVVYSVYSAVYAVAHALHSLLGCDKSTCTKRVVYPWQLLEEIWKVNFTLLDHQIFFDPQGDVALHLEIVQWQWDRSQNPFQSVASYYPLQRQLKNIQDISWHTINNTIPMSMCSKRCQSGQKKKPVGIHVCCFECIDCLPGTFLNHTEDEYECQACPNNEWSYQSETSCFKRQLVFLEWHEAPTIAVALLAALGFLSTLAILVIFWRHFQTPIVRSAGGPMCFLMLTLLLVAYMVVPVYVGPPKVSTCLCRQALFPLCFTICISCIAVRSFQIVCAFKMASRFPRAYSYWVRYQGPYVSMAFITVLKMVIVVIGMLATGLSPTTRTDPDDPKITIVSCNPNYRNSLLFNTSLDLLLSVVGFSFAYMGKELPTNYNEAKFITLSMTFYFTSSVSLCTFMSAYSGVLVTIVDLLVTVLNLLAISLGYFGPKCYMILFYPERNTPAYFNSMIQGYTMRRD
# T1 sequence (Q7RTX0 21-852): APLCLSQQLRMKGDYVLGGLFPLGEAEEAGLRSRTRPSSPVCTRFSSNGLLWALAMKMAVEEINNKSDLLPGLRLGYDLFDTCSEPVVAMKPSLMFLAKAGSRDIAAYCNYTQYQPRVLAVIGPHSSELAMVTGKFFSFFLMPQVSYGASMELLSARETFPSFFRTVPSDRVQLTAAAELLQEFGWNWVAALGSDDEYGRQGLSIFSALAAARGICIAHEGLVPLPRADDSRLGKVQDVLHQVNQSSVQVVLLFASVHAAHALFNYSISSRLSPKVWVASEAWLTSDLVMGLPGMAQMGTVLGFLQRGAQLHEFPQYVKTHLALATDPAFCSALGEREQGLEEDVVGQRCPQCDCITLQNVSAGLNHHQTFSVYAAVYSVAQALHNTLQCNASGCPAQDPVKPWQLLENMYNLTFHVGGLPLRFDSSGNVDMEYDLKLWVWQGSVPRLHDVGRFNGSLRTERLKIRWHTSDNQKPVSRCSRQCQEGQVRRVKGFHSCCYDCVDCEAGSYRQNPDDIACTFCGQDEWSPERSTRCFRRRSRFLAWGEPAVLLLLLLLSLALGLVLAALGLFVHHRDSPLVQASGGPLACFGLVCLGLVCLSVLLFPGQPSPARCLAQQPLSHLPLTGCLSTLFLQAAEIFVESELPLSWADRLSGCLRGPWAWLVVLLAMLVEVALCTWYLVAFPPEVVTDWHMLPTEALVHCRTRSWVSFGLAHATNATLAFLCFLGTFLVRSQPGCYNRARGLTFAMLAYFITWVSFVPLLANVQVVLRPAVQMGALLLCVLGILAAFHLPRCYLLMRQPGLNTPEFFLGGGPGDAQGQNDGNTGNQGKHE
# Assay: In vitro hT1R2/hT1R3-HEK293 taste receptor activation assay (FLIPR)
# Assay type: cell-based
# Conditions: Table A; read-out: SWEET EC50
# Protocol: An HEK293 cell line derivative (Chandrashekar et al., Cell (2000) 100:703-711) that stably expresses Gα15 and hT1R2/hT1R3 (Li et al., Proc Natl Acad Sci USA (2002) 99:4692-4696), see also PCT Publication No. WO 03/001876 A2) was used to identify compounds with sweet taste enhancing properties.
# Compounds covered in this document were initially selected based on their activity on the hT1R2/hT1R3-HEK293-Gα15 cell line (Li et al. vide supra). Activity was determined using an automated fluorometric imaging assay on a FLIPR instrument ([…], Molecular Devices, Sunnyvale, Calif.) (designated FLIPR assay). Cells from one clone (designated S-9 cells) were seeded into 384-well plates (at approximately 50,000 cells per well) in a medium containing DMEM Low Glucose (Invitrogen, Carlsbad, Calif.), 10% dialyzed fetal bovine serum (Invitrogen, Carlsbad, Calif.), 100 Units/ml Penicillin G, and 100 μg/ml Streptomycin (Invitrogen, Carlsbad, Calif.) (Li et al. vide supra) see also PCT Publication No. WO 03/001876 A2). S-9 cells were grown for 24 hours at 37° C. S-9 cells were then loaded with the calcium dye Fluo-3AM (Molecular Probes, Eugene, Oreg.), 4 μM in a phosphate buffered saline (D-PBS) (Invitrogen, Carlsbad, Calif.), for 1 hour at room temperature. After replacement with 25 μl D-PBS, stimulation was performed in the FLIPR instrument and at room temperature by the addition of 25 μl D-PBS supplemented with different stimuli at concentrations corresponding to twice the desired final level. Receptor activity was quantified by determining the maximal fluorescence increases (using a 480 nm excitation and 535 nm emission) after normalization to basal fluorescence intensity measured before stimulation.
# For dose-responses analysis, stimuli were presented in duplicates at 10 different concentrations ranging from 60 nM to 30 μM. Activities were normalized to the response obtained with 400 mM D-fructose, a concentration that elicits maximum receptor response. EC50s were determined using a non-linear regression algorithm (using a Senomyx, Inc. software), where the Hill slope, bottom asymptotes and top asymptotes were allow to vary. Identical results were obtained when analyzing the dose-response data using commercially available software for non-linear regression analysis such as GraphPad PRISM (San Diego, Calif.).
row,Structure (SMILES),EC50 [nM]
1,COC(=O)c1ccccc1-c1ccc(C(C)(C)C(=O)NCC(C)C)cc1 [Compound A15],4000
2,CC(C)CNC(=O)C(C)(C)c1ccc(-c2cccc3[nH]ccc23)cc1 [Compound A26],2020
3,CCOc1cncc(-c2ccc(C(C)(C)C(=O)NCC(C)C)cc2)c1 [Compound A68],1590
4,COc1cccc(-c2ccc(C(C)C(=O)NCC(C)C)cc2)c1 (stereo not drawn) [Compound A7],5580
5,COc1ccc(-c2ccc(C(C)(C)C(=O)NCC(C)C)cc2)c(OC)c1 [Compound A19],7100
6,CC(C)(C(=O)N[C@@H](O)c1ccccc1)c1ccc(-c2cncc(C#N)c2)cc1 [Compound A28],2060
7,CC[C@H](C)NC(=O)C(C)(C)c1ccc(-c2cncc(COC)c2)cc1 [Compound A64],1290
8,CC(C)CNC(=O)C(C)(C)c1ccc(-c2ccccc2)cc1 [Compound A36],1280
9,CCC(COC)NC(=O)C(C)(C)c1ccc(-c2cncc(C#N)c2)cc1 (stereo not drawn) [Compound A62],1220
10,CC(C)CNC(=O)C(C)(C)c1ccc(-c2ccncc2)cc1 [Compound A9],1660
11,CCC(C)NC(=O)[C@@H](C)c1ccc(-c2ccccc2)c(F)c1 (stereo partly drawn) [Compound A2],2380
12,COc1cc(C(C)(C)C(=O)NCC(C)C)ccc1-c1ccccc1 [Compound A76],960
13,CC(C)CNC(=O)C(C)(C)c1ccc(-c2cccc(S(C)(=O)=O)c2)cc1 [Compound A38],1490

# The remaining lines, values ahead:
row,EC50 [nM],Structure (SMILES)
1,210,CC(C)[C@@H](C)NC(=O)C(C)(C)c1ccc(-c2cncc(C#N)n2)cc1 [Compound A44]
2,940,CC(C)NC(=O)C(C)(C)c1ccc(-c2cncc(C#N)c2)cc1 [Compound A22]
3,590,CC(C)(C(=O)NCc1ccoc1)c1ccc(-c2cncc(C#N)n2)cc1 [Compound A54]
4,310,CC(C)[C@H](C)NC(=O)C(C)(C)c1ccc(-c2cncc(C#N)n2)cc1 [Compound A46]
5,1540,CC(C)CNC(=O)Cc1ccc(-c2ccccc2)cc1 [Compound A39]
6,4260,CC(C)CNC(=O)C(C)c1ccc(-c2ccccc2)cc1 (stereo not drawn) [Compound A5]
7,750,CC(C)CNC(=O)C(C)(C)c1ccc(-c2cocc2/C=N/O)cc1 [Compound A71]
8,620,CCC(CC)CNC(=O)C(C)(C)c1ccc(-c2cncc(C#N)c2)cc1 [Compound A91]
9,1100,CC[C@H](CO)NC(=O)C(C)(C)c1ccc(-c2ccccc2)cc1 [Compound A60]
10,510,CCC(C)CNC(=O)C(C)(C)c1ccc(-c2cncc(COC)c2)cc1 (stereo not drawn) [Compound A70]
11,3190,COCC(C)NC(=O)C(C)(C)c1ccc(-c2ccccc2)c(F)c1 (stereo not drawn) [Compound A4]
12,1660,CCC[C@@H](CO)NC(=O)C(C)(C)c1ccc(-c2cncc(C#N)c2)cc1 [Compound A69]
13,410,CC(C)(C(=O)NC1CCC1)c1ccc(-c2cncc(C#N)c2)cc1 [Compound A51]
14,3050,COCc1cccc(-c2ccc(C(C)(C)C(=O)NCC(C)C)nc2)c1 [Compound A30]
15,2060,CC(C)(C(=O)NC[C@@H]1CCCO1)c1ccc(-c2cncc(C#N)c2)cc1 [Compound A27]
16,6000,CC(C)CNC(=O)C(C)(C)c1ccc(-c2cccc(C(C)C)c2)cc1 [Compound A16]

# Same assay, conditions: read-out: EC50 for activation of a hT1R2/hT1R3 sweet receptor expressed in HEK293 cell line
row,Structure (SMILES),EC50 [nM]
1,"CC(C)CNC(=O)C(C)(C)c1cc(-c2ccccc2)no1 [Compound 33, N-isobutyl-2-methyl-2-(3-phenylisoxazol-5-yl)propanamide]",6750
2,"CC(C)CNC(=O)C(C)(C)c1ccc(-c2cccc(C#N)c2)cc1 [Compound 9, 2-(3′-cyanobiphenyl-4-yl)-N-isobutyl-2-methylpropanamide]",200
3,"CC(C)CNC(=O)C(C)(C)c1ccc(-c2cccc(O)c2)cc1 [Compound 11, 2-(3′-hydroxybiphenyl-4-yl)-N-isobutyl-2-methylpropanamide]",1900
4,"CC(C)CNC(=O)C(C)c1ccc(-c2ccccc2)c(F)c1 (stereo not drawn) [Compound 3, 2-(2-fluorobiphenyl-4-yl)-N-isobutylpropanamide]",2800
5,"CC(C)CNC(=O)C(C)(C)c1ccc(-c2cccc(OC(C)C)c2)cc1 [Compound 18, N-isobutyl-2-(3′-isopropoxybiphenyl-4-yl)-2-methylpropanamide]",4200
6,"CC(C)CNC(=O)C(C)(C)c1ccc(-c2ccccc2CO)cc1 [Compound 36, 2-(2′-(hydroxymethyl)biphenyl-4-yl)-N-isobutyl-2-methylpropanamide]",1050

# The next lines start with the values.
row,EC50 [nM],Structure (SMILES)
1,140,CC(C)[C@@H](C)NC(=O)C(C)(C)c1ccc(-c2cncc(C#N)c2)cc1 [Compound 22]
2,1420,"Cc1cc(C(C)(C)C(=O)NCC(C)C)ccc1-c1ccccc1 [Compound 50, N-isobutyl-2-methyl-2-(2-methylbiphenyl-4-yl)propanamide]"
3,400,"CC(C)CNC(=O)C(C)(C)c1ccc(-c2cccc([N+](=O)[O-])c2)cc1 [Compound 8, N-isobutyl-2-methyl-2-(3′-nitrobiphenyl-4-yl)propanamide]"
4,70,"CCC(CC)NC(=O)C(C)(C)c1ccc(-c2cncc(C#N)c2)cc1 [Compound 21, 2-(4-(5-cyanopyridin-3-yl)phenyl)-2-methyl-N-(pentan-3-yl)propanamide]"
5,2600,"CCOC(=O)c1cccc(-c2ccc(C(C)(C)C(=O)NCC(C)C)cc2)c1 [Compound 16, Ethyl 4′-(1-(isobutylamino)-2-methyl-1-oxopropan-2-yl)biphenyl-3-carboxylate]"
6,900,"COC(=O)c1cccc(-c2ccc(C(C)(C)C(=O)NCC(C)C)cc2)c1 [Compound 10, Methyl 4′-(1-(isobutylamino)-2-methyl-1-oxopropan-2-yl)biphenyl-3-carboxylate]"
7,3810,"CCC(COC)NC(=O)C(C)(C)c1ccc(-c2ccccc2)c(F)c1 (stereo not drawn) [Compound 6, 2-(2-fluorobiphenyl-4-yl)-N-(1-methoxybutan-2-yl)-2-methylpropanamide]"
